Experimental data from article PMC6068344, “CPP‐E1A fusion peptides inhibit CtBP‐mediated transcriptional repression” (Molecular Oncology, 2018).
No end group written: not given here.

How the values were obtained:
6xHis‐CtBP1 = 6xHis‐CtBP1 (UniProt Q13363); assay: AlphaScreen; conditions: competition against the CtBP1-E1A interaction, peptide at 250 µM (highest concentration), IC50 printed as 'Not determined', read off a plot
H1299 cells [1] = assay: Peptide internalization by anti-FLAG immunofluorescence in H1299 cells; format: in vitro ADME, human; conditions: 20 μM peptide, 30 min, DAPI
Protocol: (§1) H1299 or A375 cells were allowed to adhere to a cover slip overnight in DMEM complete media and grown until they reached approximately 75% confluency on the cover slip surface. After a 30 min treatment with 20 μM peptides, TAT (used as a negative control), TAT‐E1A‐WT, and Pep1‐E1A‐WT, cells were fixed for 10 min using 100% methanol, and permeabilized for 1 min in 100% acetone. Each sample was stained with an anti‐FLAG antibody and detected using an Alexa Fluor 555 anti‐mouse IgG (4409S; Cell Signaling Technology, Danvers, MA, USA). DAPI staining was used to visualize the nucleus.

A375 cells = assay: Peptide internalization by anti-FLAG immunofluorescence in A375 cells; format: in vitro ADME, human; conditions: for Entry into A375 cells: anti-FLAG immunofluorescence as in Figure 2 (20 μM, 30 min)
Protocol: as §1

[2] = biological target: T1, 6xHis-CtBP1 and GST-E1A (CtBP1-E1A interaction) (Homo sapiens, UniProt Q13363); assay: AlphaScreen assay of the CtBP1-E1A interaction; format: binding; conditions: AlphaScreen competition with GST-E1A; 125 nM 6xHis-CtBP1, 125 nM GST-E1A; peptide 2 μM to 200 μM; three experiments in triplicate; GraphPad Prism; read-out: IC50 (μM), disruption of the CtBP1-E1A interaction
T1 construct: 6xHis; made in house
Protocol: The AlphaScreen assay was carried out using 6xHis‐CtBP1 and GST‐E1A proteins following the manufacturer's protocol (PerkinElmer, Waltham, MA, USA) unless otherwise specified. GST‐E1A and 6xHis‐CtBP were purified as previously described (Blevins et al., 2015). To confirm inhibition by CPP‐E1A peptides, each peptide was added at varying concentrations (2 μM to 200 μM) to compete with GST‐E1A in the AlphaScreen assay containing 125 nM 6xHis‐CtBP1 and 125 nM GST‐E1A. The IC50 value of each peptide was calculated using the GRAPHPAD PRISM software (GraphPad Software, San Diego, CA, USA).

H1299 cells [3] = assay: Subcellular fractionation and anti-FLAG western blot of the nuclear fraction; format: in vitro ADME, human; conditions: 1-h treatment, anti-FLAG, two biological replicates
Protocol: For cellular fractionation, H1299 cells were treated with 42 μg·mL^−1 digitonin in NEH lysis buffer (20 mM HEPES [pH 7.4], 150 mM NaCl, 0.2 mM EDTA, 2 mM DTT, and 2 mM MgCl2) plus a protease inhibitor cocktail (Roche) for 10 min at 4 °C. The H1299 cell lysate was centrifugated at 15 000 g in a Beckman Coulter Microfuge 22R (Beckman Coulter, Brea, CA, USA) for 10 min at 4 °C to remove the cytosolic fraction. The remaining pellet was washed twice with chilled PBS before the addition of the nuclear lysis buffer (40 mM Tris/HCl [pH 7.4], 100 mM NaCl, 10% glycerol, 2 mM β‐ME, and 0.5% Triton X‐100) plus the protease inhibitor cocktail. The nuclear fraction was incubated at 4 °C for 1 h before the final centrifugation at 15 000 g for 20 min. The soluble nuclear fraction was then used for a western blot analysis to monitor peptide levels within the nuclear fraction using a FLAG antibody (LT0420; LifeTein LLC, Somerset, NJ, USA). The western blot was also probed with primary antibodies against α‐tubulin (sc‐8035; SantaCruz Biotechnology, Dallas, TX, USA) and HDAC1 (ab‐68436; Abcam, Cambridge, MA, USA) as cytoplasmic and nuclear controls, respectively, to confirm subcellular fractionation.

[4] = Peptide stability in H1299 cells (western blot, fluorescence microscopy); format: in vitro ADME, human; conditions: 10 μM, 45 min, 2 h, 4 h, 8 h, western blot and FITC fluorescence microscopy
CtBP1 = conditions: ref Zhang et al., 2002; read-out: K d, binding to CtBP1; cited from earlier work
Text: This idea is strengthened by several studies that have found a correlation between CtBP1/2 overexpression and cancer progression in multiple tumor types, including blood (Senyuk et al., 2002), skin (Deng et al., 2013), breast (Birts et al., 2010; Deng et al., 2012; Di et al., 2013), prostate (Moiola et al., 2014; Wang et al., 2012), ovarian (May et al., 2013; Zhang e ...

| Compound | Localization to the nucleus by immunofluorescence (H1299 cells [1]) | Entry into A375 cells (A375 cells) | IC50 [2] | Peptide in the nuclear fraction (western blot) (H1299 cells [3]) | further results |
| --- | --- | --- | --- | --- | --- |
| Pep1‐E1A‐WT L35E; S36L |  |  |  |  | response (6xHis‐CtBP1; parent: est. 5): 58 % Bound |
| GSHMKETWWETWWTEWSQPKKKRKVLEEPGQPLDLSCKRPRDYKDDDDK [Pep1-E1A-WT] | significant amount of localization to the nucleus | can enter the A375 cells | 7.1 ± 1.2 µM | found in the nuclear fraction | Nuclear localization pattern in A375 cells (A375 cells; anti-FLAG immunofluorescence as in Figure 2): more predominant nuclear localization pattern; Peptide half-life / stability in vitro [4]: short half‐life |
| NC(=O)C1=CN([C@@H]2O[C@H](COP(=O)(O)OP(=O)(O)OC[C@H]3O[C@@H](n4cnc5c(N)ncnc54)[C@H](O)[C@@H]3O)[C@@H](O)[C@H]2O)C=CC1 [NADH, nicotinamide adenine dinucleotide] |  |  |  |  | Kd (CtBP1): 0.1 µM |
| GSHMGRKKRRQRRRPPQLEEPGQPLDLSCKRPRDYKDDDDK [TAT-E1A-WT] | much lower amount in the nucleus | can enter the A375 cells | 5.6 ± 1.4 µM | found in the nuclear fraction |  |
| TAT‐E1A‐WT L27E; S28L |  |  |  |  | response (6xHis‐CtBP1; parent: est. 3): 80 % Bound |
